Two compounds from patent publication US20260009799A1, “CA-IX TARGETING FLUORESCENT PROBES” (BRACCO IMAGING S.P.A., priority 2022, published 2026) can be followed below.

Broadly, the Kd is the constant that tells how readily two partners part at equilibrium.

Data set [1] in a line: Optical characterization (excitation/emission maxima, molar extinction coefficient). The class given is physicochemical. Particulars: for Max Em (nm, PBS pH 7.4) / Max Em (nm, Seronorm): emission maximum; for Max Em (nm, Seronorm) / Max Ex (nm, Seronorm): Seronorm control serum; for Max Ex (nm, PBS pH 7.4) / Max Ex (nm, Seronorm): excitation maximum. The method, then: A dual-beam UV-VIS spectrophotometer (Lambda 40, Perkin Elmer) was used to determine the absorbance (Abs) of the compounds of the invention. Emission/excitation (Em/Ex) spectra were carried out on a spectrofluorometer (FluoroLog-3 1IHR-320, Horiba Jobin Yvon) equipped with an F-3018 integrating sphere accessory. The measurements were performed using an excitation wavelength at maximum absorbance of different dyes, and the sample was excited with a 450 W Xenon light Source. Detection was performed by photomultiplier tubes (PMT-NIR) cooled detector or by TBX-04 detector. Dye solutions were carefully prepared to have an absorbance lower than 0.1 (optical densities) to minimize re-absorption phenomena.
The compounds of the invention were characterized in terms of their optical properties in vitro in aqueous medium (i.e., water/PBS pH 7.4) and in a clinical chemistry control serum (Seronorm, Sero SA), mimicking the chemical composition and optical properties of human serum. All solutions were freshly prepared. In particular, the compounds of the invention are characterized by absorption maxima comprised in the range from about 750 nm to 780 nm.
The excitation and emission maxima in PBS and Seronorm and the molar extinction coefficient (ε) in water of representative compounds of formula (I) are shown in Table I in comparison with the known CA-IX targeting fluorescent probe named Hypoxyfluor-1 (HF-1, for instance disclosed in Bioconjugate Chem 2018, 29, 3320-3331). […] Moreover, the extinction coefficients were higher than 200,000 mM^−1 cm^−1 for all compounds.

Data set [2] addresses T1, CA-IX expressing HT-29 cells (Homo sapiens, UniProt Q16790).
T1 construct: CA-IX, expressed in its physiological environment at the cell-surface; host or cells: HT-29 human colorectal adenocarcinoma cells
Nature of the data set: Cellular binding assessment by flow cytometry. Particulars: for Kd: HT-29 cells, 1 hour 30 min on ice, flow cytometry, read-out: CA-IX receptor affinity (KD, nM to HT-29 cells); for KD to HT-29 cells, fold lower than corresponding Reference compound: compound 1 vs Reference 2, compound 2 vs Reference 3; for KD to HT-29 cells compared with Reference 1 (HF-1): versus Reference 1 (HF-1). The protocol:
Human colon adenocarcinoma HT-29 cells (ATCC) used for the cellular binding experiments were cultured in McCoy's 5A medium (Sigma-Aldrich), supplemented with 10% HyClone Fetal Clone III (Euroclone), 2 mM L-glutamine (Sigma-Aldrich), 100 IU/mL penicillin, 0.1 mg/mL streptomycin, 0.25 μg/mL amphotericin B (Antibiotic-Antimycotic solution, Life Technologies) and cells were grown at 37° C. in humidified atmosphere enriched with 5% CO2. DPBS without MgCl2 and CaCl2) (Sigma-Aldrich) was used for cell rinsing.
Indeed, by using the anti-human CA-IX antibody MAB2188 (R&D Systems) and the DAKO […], according to the instruction of the datasheet, HT-29 cells were estimated to express about 150,000 CA-IX molecules per cell. Thus, HT-29 cells were used to measure the binding of all compounds to CA-IX, expressed in its physiological environment at the cell-surface. Briefly, HT-29 cells were detached with StemPro® Accutase® Cell Dissociation Reagent (Life Technologies), collected in DPBS and counted. At least 2·10^5 HT-29 cells were placed in 1.5 mL tubes on ice and resuspended in 50-100 μL of cold FACS buffer (eBioscience™ Flow Cytometry Staining Buffer, Invitrogen) containing scalar concentrations of compounds (HF-1, reference 2, and compound 1: range 0-20 μM; reference 3: range 0-24 μM; compound 2: range 0-10 μM). After incubation (1 hour and 30 min on ice in the dark), cells were rinsed 3 times in 300 μL of cold FACS buffer by centrifugation (5 min, 4° C., 350 RCF), discarding the supernatant. Cell pellets were then resuspended in 200 μL of cold FACS buffer (or in an adequate volume in order to obtain no more than 1000 recorded events per μL during FACS analysis) and analyzed with the flow cytometer Accuri™ C6 (BD Biosciences). The mean cell-associated fluorescence was plotted against concentration and the dissociation constant at equilibrium (KD) was inferred by mathematical fitting with GraphPad Prism v.9 software, according to the following equation: […]
where Bmax is the maximum specific binding in the same units as Y; KD is the equilibrium dissociation constant, in the same units as X; NS is the slope of nonspecific binding in Y units divided by X units; and background is the amount of nonspecific binding with no added Compound.
All compounds were analyzed in at least three independent experiments.

The target in a further data set is T2, target receptor CA-IX (Homo sapiens, UniProt Q16790).
T2 construct: endogenous in cells
Kind of data set: Cell uptake competition with 100x excess acetazolamide. The class given is cell-based. To be noted: for % uptake in presence of 100x excess acetazolamide: 1 μM, 2 hours at 37° C., residual cellular uptake; for share of cell-associated fluorescence due to non-specific cellular uptake: flow cytometry. The protocol: The receptor-mediated uptake, i.e. whether the uptake of the probes was mediated by binding to the target receptor CA-IX, was analyzed by performing competition experiments.
Background: A flow cytometer gives signals particle by particle.

The test system of data set [3] is HT-29 excised tumors and tissues. Nature of the data set: Ex vivo biodistribution in excised tumors and organs. Details: species or system mice. Particulars: for ex vivo TBR, times higher than respective References 2 and 3: 1 nmol/mouse, 24 hours; for Organ-to-muscle ratio, intestine (mean ± SD) / Organ-to-muscle ratio, kidney (mean ± SD) / Organ-to-muscle ratio, liver (mean ± SD) / Organ-to-muscle ratio, skin (mean ± SD) / Organ-to-muscle ratio, spleen (mean ± SD) / Organ-to-muscle ratio, stomach (mean ± SD): ex vivo, 24 hours after administration; for Organ-to-muscle ratio, intestine (mean ± SD) / Organ-to-muscle ratio, kidney (mean ± SD) / Organ-to-muscle ratio, liver (mean ± SD) / Organ-to-muscle ratio, skin (mean ± SD) / Organ-to-muscle ratio, spleen (mean ± SD) / Organ-to-muscle ratio, stomach (mean ± SD) / ex vivo TBR (mean ± SD), HT-29 tumor: 1 nmol; for ex vivo TBR (mean ± SD), HT-29 tumor: samples collected 24 hours after administration, tumor vs hind limb muscle. The protocol:
The ex vivo biodistribution of the representative compounds 1 and 2 and of the reference compounds (at 1 nmol/mouse) was evaluated in HT-29 excised tumors and tissues at the end of the in vivo OI sessions 24 hours post intravenous administration. At the end of the in vivo experiment, animals were euthanized by overdose of gaseous anesthesia followed by cervical dislocation. Tumor tissue, muscle, and other organs of interest were removed for ex vivo fluorescent signal measurements. The fluorescence signal intensity was measured by the IVIS Spectrum system. Regions of interest (ROIs) were drawn around each organ and tumor using the Living Image Software (PerkinElmer) and evaluating signal intensity in the tissues (expressed as Average Radiant Efficiency). The ratio between the fluorescence signal in the organs and tumor was then calculated to assess the contrast to hind limb muscle (representing the background).

Data set [4] is described as follows: Optical characterization (excitation/emission maxima, molar extinction coefficient). The class given is physicochemical. Particulars: in water.
Data set [5] concerns the target recombinant bovine CA-II enzyme (bCAII) (Bos taurus, UniProt P00921). Nature of the data set: Fluorescence-based dansylamide (DNSA) displacement assay on carbonic anhydrase catalytic site. Particulars: for KD for bCAII, times lower than corresponding reference compound bearing the same cyanine dye: compound 1 vs Reference 2, compound 2 vs Reference 3.

Sequence of recombinant bovine CA-II enzyme (bCAII) (P00921 whole entry): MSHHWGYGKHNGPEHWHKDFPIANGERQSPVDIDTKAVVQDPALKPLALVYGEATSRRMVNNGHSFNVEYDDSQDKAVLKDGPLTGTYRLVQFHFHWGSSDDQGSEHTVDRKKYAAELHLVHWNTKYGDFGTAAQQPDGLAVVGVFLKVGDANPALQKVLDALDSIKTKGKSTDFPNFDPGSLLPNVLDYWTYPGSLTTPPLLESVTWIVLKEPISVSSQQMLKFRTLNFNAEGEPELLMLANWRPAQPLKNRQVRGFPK

On to `CC1(C)C(/C=C/C2=C(Oc3ccc(S(=O)(=O)O)cc3)C(=C/C=C3/N(CCCCCC(=O)NCCCCCCCC(=O)Nc4nnc(S(N)(=O)=O)s4)c4ccc(C(=O)NC[C@H](O)[C@@H](O)[C@H](O)[C@H](O)CO)cc4C3(C)C)/CCC2)=[N+](CCCCS(=O)(=O)[O-])c2ccc(C(=O)NC[C@H](O)[C@@H](O)[C@H](O)[C@H](O)CO)cc21` [Compound 1], for which, in data set [1], the “Max Em (nm, PBS pH 7.4)” value came out at 806 nm; the “Max Em (nm, Seronorm)” value was 812 nm; the “Max Ex (nm, PBS pH 7.4)” value is reported as 782 nm; the “Max Ex (nm, Seronorm)” value stood at 792 nm. Also, in data set [2], the dissociation constant Kd was 174 ± 15 nM; the “KD to HT-29 cells, fold lower than corresponding Reference compound” value is reported as 2 fold; the “KD to HT-29 cells compared with Reference 1 (HF-1)” value is on record as “rather comparable”. At target receptor CA-IX, the “% uptake in presence of 100x excess acetazolamide” value is 6.5 ± 2.2% and the “share of cell-associated fluorescence due to non-specific cellular uptake” value was “about 10%”. In addition, in data set [3], the “ex vivo TBR, times higher than respective References 2 and 3” value is reported as “about 1.5 times”; the “Organ-to-muscle ratio, intestine (mean ± SD)” value is 1.8 ± 0.4; the “Organ-to-muscle ratio, kidney (mean ± SD)” value came to 6.0 ± 1.1; the “Organ-to-muscle ratio, liver (mean ± SD)” value is listed as 4.2 ± 0.7. Moreover, in data set [3], the “Organ-to-muscle ratio, skin (mean ± SD)” value came out at 1.2 ± 0.1; the “Organ-to-muscle ratio, spleen (mean ± SD)” value is reported as 0.9 ± 0.2; the “Organ-to-muscle ratio, stomach (mean ± SD)” value worked out at 5.4 ± 0.8; the “ex vivo TBR (mean ± SD), HT-29 tumor” value came out at 13.4 ± 2.2. This compound also registered a molar extinction coefficient (ε) in data set [4] of 250000 M⁻¹ cm⁻¹. Moreover, in data set [5], the Kd stood at 13.5 ± 1.6 nM and the “KD for bCAII, times lower than corresponding reference compound bearing the same cyanine dye” value was 4 times.

In the case of `CC(CC[N+]1=C(/C=C/C=C/C=C/C=C2/N(CCCCCC(=O)NCCCCCCCC(=O)Nc3nnc(S(N)(=O)=O)s3)c3ccc(C(=O)NC[C@H](O)[C@@H](O)[C@H](O)[C@H](O)CO)cc3C2(C)C)C(C)(C)c2cc(C(=O)NC[C@H](O)[C@@H](O)[C@H](O)[C@H](O)CO)ccc21)S(=O)(=O)[O-]` (stereo partly shown) [Compound 2], in data set [1], the “Max Em (nm, PBS pH 7.4)” value was 788 nm; the “Max Em (nm, Seronorm)” value is recorded as 790 nm; the “Max Ex (nm, PBS pH 7.4)” value is given as 758 nm; the “Max Ex (nm, Seronorm)” value came to 762 nm. Also, in data set [2], the equilibrium dissociation constant (Kd) amounted to 58 ± 9 nM; the “KD to HT-29 cells, fold lower than corresponding Reference compound” value is reported as “more than 4 fold”; the “KD to HT-29 cells compared with Reference 1 (HF-1)” value came to 2 fold. For the same compound, on target receptor CA-IX, the “% uptake in presence of 100x excess acetazolamide” value amounted to 11.3 ± 1.7% and the “share of cell-associated fluorescence due to non-specific cellular uptake” value is recorded as “about 10%”. In addition, in data set [3], the “ex vivo TBR, times higher than respective References 2 and 3” value is “about 1.5 times”; the “Organ-to-muscle ratio, intestine (mean ± SD)” value came to 1.6 ± 0.3; the “Organ-to-muscle ratio, kidney (mean ± SD)” value was determined as 7.1 ± 1.5; the “Organ-to-muscle ratio, liver (mean ± SD)” value came out at 3.3 ± 0.4. In data set [3], the “Organ-to-muscle ratio, skin (mean ± SD)” value stood at 1.5 ± 0.3; the “Organ-to-muscle ratio, spleen (mean ± SD)” value turned out to be 1.0 ± 0.1; the “Organ-to-muscle ratio, stomach (mean ± SD)” value came to 6.8 ± 1.3; the “ex vivo TBR (mean ± SD), HT-29 tumor” value stood at 23.1 ± 6.7. This compound also came in with a molar extinction coefficient (ε) in data set [4] of 250000 M⁻¹ cm⁻¹. Also, in data set [5], the equilibrium dissociation constant (Kd) came out at 6.1 ± 1.6 nM and the “KD for bCAII, times lower than corresponding reference compound bearing the same cyanine dye” value stood at 5 times.
